According to patent US8372847B2, “Pyrazinone modulator of corticotropin-releasing factor receptor activity” (Bristol-Myers Squibb Company, priority 2008, dated 2013):

Legend:
Male Sprague-Dawley rats [1] = details: previous CRF1 antagonists, literature (McElroy 2002; Lelas 2004); cited from earlier work
Male Sprague-Dawley rats [2] = test: Situational anxiety behavioral model in rats (latency to exit dark cylinder into open field); assay type: in vivo, rat; details: for lowest effective dose (decrease of exit latency): PO, 60 minutes before testing
Source text: Situational Anxiety Behavioral Studies in Rats. (S)-4-(1-Cyclopropyl-2-methoxyethyl)-6-(6-(difluoromethoxy)-2,5-dimethylpyridin-3-ylamino)-5-oxo-4,5-dihydropyrazine-2-carbonitrile has been evaluated in a situational anxiety model to evaluate its anxiolytic potential. In this model, rats are placed in a small, darkened chamber located in an unfamiliar open field. Vehicle-treated rats spend most of the time within the chamber, consistent with a heightened state of anxiety [Takahashi L. K. et al, Behav. Neurosci. 103: 648-654, (1989)]. This model is sensitive to anxiolytics, including benzodiazepines such as chlordiazepoxide [Yang X-M. et al, J. Pharmacol. Exp. Ther. 255: 1064-1070, (1990)]. In addition, previous CRF1 antagonists, such as DMP696 and DMP904 [McElroy J. F. et al., Psychopharmacology 165: 86-92, (2002); Lelas S. et al., J. Pharmacol. Exp. Ther. 309: 293-302, (2004)] were effective this model. The effects of (S)-4-(1-cyclopropyl-2-methoxyethyl)-6-(6-(difluoromethoxy)-2,5-dimethylpyridin-3-ylamino)-5-oxo-4,5-dihydropyrazine-2-carbonitrile were compared with those of anxiolytic standards chlordiazepoxide (Librium®) and diazepam (Valium®) in this model. Male Sprague-Dawley rats weighing 180-300 g were purchased from Charles River Laboratories (Wilmington, Mass.). The rats were housed individually in suspended wire cages in colony rooms maintained at a constant temperature (21±2° C.) and humidity (50±10%). The rooms were illuminated 12 hours per day. The rats had ad libitum access to food and water throughout the studies. Behavioral studies were conducted between 0600 and 1300 h. Animals were maintained in accordance with the guidelines of the Animal Care and Use Committee of the Bristol-Myers Squibb Company, the “Guide for Care and Use of Laboratory Animals” (Institute of Animal Laboratory Resources, 1996), and the guidelines published in the National Institutes of Health Guide for the Care and Use of Laboratory Animals. Research protocols were approved by the Bristol-Myers Squibb Company Animal Care and Use Committee. All compounds were prepared in 0.25% methylcellulose and administered PO. Chlordiazepoxide, diazepam, and desipramine were purchased from Sigma Chemical Company. (S)-4-(1-Cyclopropyl-2-methoxyethyl)-6-(6-(difluoromethoxy)-2,5-dimethylpyridin-3-ylamino)-5-oxo-4,5-dihydropyrazine-2-carbonitrile was dosed in the volume of 2 ml/kg. All standards were dosed in the volume of 2 ml/kg. For all tests, data were analyzed by analysis of variance, followed by Dunnett's t-tests for individual comparisons. The significance value was set at 0.05. The data are presented in the text and figures as mean±standard error of the mean (SEM). Male Sprague-Dawley rats were habituated to handling and dosing the day before testing. On the day of testing, all compounds were administered PO by gavage 60 minutes before behavioral testing. To initiate testing, each animal was placed in a small galvanized steel cylinder (14 cm length, 10 cm diameter), which was placed lengthwise against one wall of an illuminated open field (106 cm length×92 cm width×50 cm height). The open field was illuminated by a 60-W incandescent bulb and illumination was titrated by a powerstat transformer to a 30-lux reading at the entrance to the cylinder. Behavior was assessed for 15 minutes by a trained observer unaware of treatment assignment. The latency of the animal to exit the cylinder, defined by the placement of all four paws into the open field, and explore the open field was recorded (in seconds). […] The Plexiglas chamber and the cylinder were cleaned with 1.0% glacial acetic acid between animals to prevent olfactory cues from influencing the behavior of subsequently tested animals. Following behavioral testing, animals were sacrificed and plasma samples and brains were taken for analysis of plasma exposure and central receptor occupancy.

[3] = 3.0 mg/kg PO, benzodiazepine standard studies
[4] = 10 mg/kg PO, benzodiazepine standard studies

Row | SMILES | effectiveness in the situational anxiety model (Male Sprague-Dawley rats [1]) | decrease in exit latency relative to vehicle-treated controls (Male Sprague-Dawley rats [2]; 1.0 mg/kg PO, benzodiazepine standard study) | decrease in exit latency relative to vehicle-treated controls (Male Sprague-Dawley rats [2]; [3]) | decrease in exit latency relative to vehicle-treated controls (Male Sprague-Dawley rats [2]; [4]) | lowest effective dose (decrease of exit latency) (Male Sprague-Dawley rats [2]) | decrease in exit latency relative to vehicle-treated controls (Male Sprague-Dawley rats [2]; 30 mg/kg PO, benzodiazepine standard study) | decrease in exit latency relative to vehicle-treated controls (Male Sprague-Dawley rats [2]; 100 mg/kg PO, benzodiazepine standard study)
1 | CCC(CC)Nc1cc(C)nc2c(-c3ccc(OC)cc3C)c(C)nn12 [DMP904] | effective |  |  |  |  |  | 
2 | CN1C(=O)CN=C(c2ccccc2)c2cc(Cl)ccc21 [diazepam] |  | 62% | 69% | 91% | 1.0 mg/kg |  | 
3 | CNC1=Nc2ccc(Cl)cc2C(c2ccccc2)=[N+]([O-])C1 [chlordiazepoxide] |  |  | 58% | 97% | 3.0 mg/kg | 72% | 54%
